{"source": "patent US7101872B2", "about": "“Farnesyl dibenzodiazepinone, and processes for its production” (Ecopia BioSciences, Inc., priority 2003, dated 2006)", "test_in_all_cases": "NCI panel SRB growth inhibition", "format_in_all_cases": "cell-based", "key": {"OVCAR-8": {"system": "OVCAR-8", "details": "Homo sapiens, OVCAR-8, Ovarian, 48 h", "experimental": "(§1) The operation of this unique screen utilizes […] different human tumor cell lines, representing leukemia, melanoma and cancers of the lung, colon, brain, ovary, breast, prostate, and kidney.\n(§2) Culture conditions and plating: The human tumor cell lines of the cancer-screening panel were grown in RPMI 1640 medium containing 5% fetal bovine serum and 2 mM L-glutamine. For a typical screening experiment, cells were inoculated into 96 well microtiter plates in 100 μL at plating densities ranging from 5,000 to 40,000 cells/well depending on the doubling time of individual cell lines (Table 5). After cell inoculation, the microtiter plates were incubated at 37° C., 5% CO2, 95% air and 100% relative humidity for 24 h prior to addition of experimental drugs. After 24 h, two plates of each cell line were fixed in situ with TCA, to represent a measurement of the cell population for each cell line at the time of drug addition (Tz). Evaluation of inhibitory activity on cell proliferation: ECO-04601 was provided as a lyophilized powder with an estimated purity of 90+%. The compound was stored at −20° C. until day of use. ECO-04601 was solubilized in dimethyl sulfoxide at 400-fold the desired final maximum test concentration. At the time of drug addition, an aliquot of frozen concentrate was thawed and diluted to twice the desired final maximum test concentration with complete medium containing 50 μg/mL gentamicin. Additional four, 10-fold or Y2 log serial dilutions were made to provide a total of five drug concentrations plus control. Aliquots of 100 μl of these different drug dilutions were added to the appropriate microtiter wells already containing 100 μl of medium, resulting in the required final drug concentrations (8.0×10^−5 M to 8.0×10^−9 M).\n(§3) Following drug addition, the plates were incubated for an additional 48 h at 37° C., 5% CO2, 95% air, and 100% relative humidity. For adherent cells, the assay was terminated by the addition of cold TCA. Cells were fixed in situ by the gentle addition of 50 μl of cold 50% (w/v) TCA (final concentration, 10% TCA) and incubated for 60 minutes at 4° C. Supernatants were discarded, and the plates were washed five times with tap water and air-dried. Sulforhodamine B (SRB) solution (100 μl) at 0.4% (w/v) in 1% acetic acid was added to each well, and plates were incubated for 10 minutes at room temperature. After staining, unbound dye was removed by washing five times with 1% acetic acid and the plates were air-dried. Bound stain was subsequently solubilized with 10 mM trizma base, and the absorbance was read on an automated plate reader at a wavelength of 515 nm. For suspension cells, the methodology was the same except that the assay was terminated by fixing settled cells at the bottom of the wells by gently adding 50 μl of 80% TCA (final concentration, 16% TCA).\n(§4) The growth inhibitory activity of ECO-04601 was measured by NCI utilizing the GI50 value, rather than the classical IC50 value."}, "IGR-OV1": {"system": "IGR-OV1", "details": "Homo sapiens, IGROV-1, IGR-OV1, Ovarian, 48 h", "experimental": "as §1, §2, §3, §4"}, "SW-620": {"system": "SW-620", "details": "Homo sapiens, SW-620, Colon, 48 h", "experimental": "as §1, §2, §3, §4"}, "SNB-75": {"system": "SNB-75", "details": "Homo sapiens, SNB-75, CNS, 48 h", "experimental": "as §1, §2, §3, §4"}, "DU-145": {"system": "DU-145", "details": "Homo sapiens, DU-145, Prostate, 48 h", "experimental": "as §1, §2, §3, §4"}, "NCI-H226": {"system": "NCI-H226", "details": "Homo sapiens, NCI-H226, Non-Small Cell Lung, 48 h", "experimental": "as §1, §2, §3, §4"}, "BT-549": {"system": "BT-549", "details": "Homo sapiens, BT-549, Breast, 48 h", "experimental": "as §1, §2, §3, §4"}, "LOX IMVI": {"system": "LOX IMVI", "details": "Homo sapiens, Melanoma, 48 h", "experimental": "as §1, §2, §3, §4"}, "HOP-62": {"system": "HOP-62", "details": "Homo sapiens, HOP-62, Non-Small Cell Lung, 48 h", "experimental": "as §1, §2, §3, §4"}, "T-47D": {"system": "T-47D", "details": "Homo sapiens, T47D, Breast, 48 h", "experimental": "as §1, §2, §3, §4"}, "HT29": {"system": "HT29", "details": "Homo sapiens, HT-29, HT29, Colon, 48 h", "experimental": "as §1, §2, §3, §4"}, "A498": {"system": "A498", "details": "Homo sapiens, A498, Renal, 48 h", "experimental": "as §1, §2, §3, §4"}, "SK-MEL-5": {"system": "SK-MEL-5", "details": "Homo sapiens, SK-MEL-5, Melanoma, 48 h", "experimental": "as §1, §2, §3, §4"}, "U251": {"system": "U251", "details": "Homo sapiens, U-251, U251, CNS, 48 h", "experimental": "as §1, §2, §3, §4"}, "SF-539": {"system": "SF-539", "details": "Homo sapiens, SF-539, CNS, 48 h", "experimental": "as §1, §2, §3, §4"}, "MDA-MB-231/ATCC": {"system": "MDA-MB-231/ATCC", "details": "Homo sapiens, Breast, 48 h", "experimental": "as §1, §2, §3, §4"}, "MCF7": {"system": "MCF7", "details": "Homo sapiens, MCF7, Breast, 48 h", "experimental": "as §1, §2, §3, §4"}, "OVCAR-3": {"system": "OVCAR-3", "details": "Homo sapiens, OVCAR-3, Ovarian, 48 h", "experimental": "as §1, §2, §3, §4"}, "CAKI-1": {"system": "CAKI-1", "details": "Homo sapiens, CAKI-1, Renal, 48 h", "experimental": "as §1, §2, §3, §4"}, "RXF 393": {"system": "RXF 393", "details": "Homo sapiens, RXF 393, Renal, 48 h", "experimental": "as §1, §2, §3, §4"}, "MDA-MB-435": {"system": "MDA-MB-435", "details": "Homo sapiens, MDA-MB-435, Breast, 48 h", "experimental": "as §1, §2, §3, §4"}, "SK-MEL-2": {"system": "SK-MEL-2", "details": "Homo sapiens, SK-MEL-2, Melanoma, 48 h", "experimental": "as §1, §2, §3, §4"}, "UACC-257": {"system": "UACC-257", "details": "Homo sapiens, UACC-257, Melanoma, 48 h", "experimental": "as §1, §2, §3, §4"}, "SF-295": {"system": "SF-295", "details": "Homo sapiens, SF-295, CNS, 48 h", "experimental": "as §1, §2, §3, §4"}, "786-0": {"system": "786-0", "details": "Homo sapiens, 786-0, Renal, 48 h", "experimental": "as §1, §2, §3, §4"}, "OVCAR-4": {"system": "OVCAR-4", "details": "Homo sapiens, OVCAR-4, Ovarian, 48 h", "experimental": "as §1, §2, §3, §4"}}}
{"smiles": "CC(C)=CCC/C(C)=C/CC/C(C)=C/CN1C(=O)c2cccc(O)c2Nc2c(O)cc(O)cc21", "note": "[ECO-04601, 10-farnesyl-4,6,8-trihydroxy-dibenzodiazepin-11-one]", "values": [{"measurement": "GI50", "setting": "OVCAR-8", "value": 2650, "unit": "nM"}, {"measurement": "GI50", "setting": "IGR-OV1", "value": 3.11, "unit": "µM"}, {"measurement": "GI50", "setting": "SW-620", "value": 2720, "unit": "nM"}, {"measurement": "GI50", "setting": "SNB-75", "value": 7.71, "unit": "µM"}, {"measurement": "GI50", "setting": "DU-145", "value": 3.56, "unit": "µM"}, {"measurement": "GI50", "setting": "NCI-H226", "value": 2000, "unit": "nM"}, {"measurement": "GI50", "setting": "BT-549", "value": 110, "unit": "nM"}, {"measurement": "GI50", "setting": "LOX IMVI", "value": 4.53, "unit": "µM"}, {"measurement": "GI50", "setting": "HOP-62", "value": 8.29, "unit": "µM"}, {"measurement": "GI50", "setting": "T-47D", "value": 770, "unit": "nM"}, {"measurement": "GI50", "setting": "HT29", "value": 20.7, "unit": "µM"}, {"measurement": "GI50", "setting": "A498", "value": 22.3, "unit": "µM"}, {"measurement": "GI50", "setting": "SK-MEL-5", "value": 7.8, "unit": "µM"}, {"measurement": "GI50", "setting": "U251", "value": 2190, "unit": "nM"}, {"measurement": "GI50", "setting": "SF-539", "value": 7.5, "unit": "nM"}, {"measurement": "GI50", "setting": "MDA-MB-231/ATCC", "value": 2720, "unit": "nM"}, {"measurement": "GI50", "setting": "MCF7", "value": 10.1, "unit": "µM"}, {"measurement": "GI50", "setting": "OVCAR-3", "value": 13.5, "unit": "µM"}, {"measurement": "GI50", "setting": "CAKI-1", "value": 15.2, "unit": "µM"}, {"measurement": "GI50", "setting": "RXF 393", "value": 7.71, "unit": "µM"}, {"measurement": "GI50", "setting": "MDA-MB-435", "value": 15.3, "unit": "µM"}, {"measurement": "GI50", "setting": "SK-MEL-2", "value": 25, "unit": "µM"}, {"measurement": "GI50", "setting": "UACC-257", "value": 2310, "unit": "nM"}, {"measurement": "GI50", "setting": "SF-295", "value": 12.7, "unit": "µM"}, {"measurement": "GI50", "setting": "786-0", "value": 6.99, "unit": "µM"}, {"measurement": "GI50", "setting": "OVCAR-4", "value": 9.67, "unit": "µM"}]}
